SMILES strings stand for the structures.

What all share (format): in vivo
For test [1], the system named is male Cy/+ rat. The test can be described thus: Kidney assessment (cyst volume, fibrosis, kidney weight, histology) in male Cy/+ rats. The following applies: ANOVA with post group comparisons, all p<0.01, HCl.
Test [2] concerns male Cy/+ rat. As to the kind of experiment: Blood laboratory values in male Cy/+ rats treated from week 20. The following applies: for BUN / Calcium / Phosphorus / PTH: 38 week time point, treatment from week 20; for PTH: Compound A 0.05% w/w in chow, 3% Ca gluconate in water, mean ± SD. The source says: (§1) The Cy rat is a Han:SPRD rat with a spontaneous genetic mutation called Cy. These animals develop progressive kidney disease due to the formation of multiple kidney tubule cysts that arise from both the proximal and later the distal tubule. The colony of rats has been maintained through successive breeding of two heterozygous Cy/+ rats. This is an autosomal dominant gene, such that at birth, ¼ of the animals are normal, ½ are heterozygotes (Cy/+) and ¼ are homozygotes (Cy/Cy). Homozygotes (Cy/Cy) of either sex are easily identified after approximately 10 days of age by abdominal palpation and elevations in blood urea nitrogen (BUN), a finding used to verify parental heterozygosity for PKD. Homozygous Cy/Cy rats develop massively enlarged kidneys and severe azotemia and die by 4 weeks of age. Heterozygote male animals develop progressive chronic kidney disease (CKD) with rise in blood urea nitrogen (BUN) by 10 weeks and death from uremia by 40-50 weeks. Heterozygote female animals develop progressive CKD with rise in BUN not detected until 20 weeks, with death at 80 weeks. […] Average food intake was 50 g/kg/day. At the time of sacrifice, rats were anesthetized with sodium pentobarbitol ([…], i.p.) and weighed. Blood was obtained for determination of serum creatinine, BUN, intact PTH, Ca and PO4. The left kidney was removed, weighed and frozen in liquid nitrogen for subsequent batch analyses. The right kidney was perfusion fixed with 4% paraformaldehyde in phosphate buffer (ph 7.4). The tissue was embedded in paraffin for histological studies. Cyst volume density was determined by point count stereology from randomly selected fields from hematoxylin and cosin (H&E) stained slides. Fibrosis was graded semi-quantitatively (scored 0-4+) from picrosirius red stained slides. The reviewer was blinded to the treatment group. Both measure were also standardized by body weight (for cyst volume) or kidney weight (for fibrosis). Plasma urea and creatinine were determined using colorimetric assays (Urea-Sigma 640 creatinine kit). Intact PTH was determined by ELISA; Alpacoa, and Ca and PO4 were done with using colorimeteric analyses (Sigma). Cy−/+ (cystic) male rats were assigned to one of four treatment groups (Table 5) and were phenotyped (by BUN) at 10 weeks and again at 20 weeks to ensure animals were cystic. […] Comparator groups included Compound A with calcium in the drinking water versus calcium alone. These comparator groups allow differentiation of the effects of changes in PTH and calcium from a direct action of the calcimimetic. FIG. 1 schematically represents the study design. At 10 weeks, animals were phenotyped. At 20 weeks, animals were started on the treatment arm. Half the animals were sacrificed at 34 weeks, half the animals were sacrificed 38 weeks. At each time point, samples from 8 animals were perfusion fixed with paraformaldehyde for CT scan, bone histology and aorta histology, samples from 8 animals were saline perfused for HCl extraction to determine calcium and phosphate content, and blood samples from 16 animals were collected for blood tests (PTH, calcium, phosphorus, BUN). Animals in the paraformaldehyde fixation group received tetracycline administration four and one week prior to sacrifice to label the bone for morphometric analyses. For the purpose of this application, only the laboratory and kidney end points will be presented. All data was analyzed by a statistician. The BUN was analyzed only at week 20 and end point (week 34 or 38) and was analyzed by ANCOVA adjusting for baseline (week 20) values. The PTH, calcium, and phosphorus were analyzed at baseline (week 20), a mid point, and end point (week 34, 38). These values were compared by a mixed model adjusting for baseline values and time point. The kidney assessments were only measured at end point at the time of sacrifice, and therefore the measures were compared by ANCOVA and within group comparisons.

Test [3] concerns male Cy/+ rat. As to the kind of experiment: Kidney assessment (cyst volume, fibrosis, kidney weight, histology) in male Cy/+ rats. As to conditions: for Cyst Vol / Cyst Vol as a % of BW / Total Kidney weight: at sacrifice; for Cyst Vol / Cyst Vol as a % of BW / Total Kidney weight / Fibrosis Score: n = 7-8, mean ± SD; for Histologic appearance of the cysts (FIG. 7): representative kidney sections, compared with control cystic animals; for Fibrosis Score: semi-quantitative score 0-4+, picrosirius red.
From the text: as §1, with “fibrosis). Four micron transverse tissue section of the kidney, including cortex” for “fibrosis). Plasma urea”, “and medulla, was stained with hematoxylin-cosin. Five fields/sections, from cortex through outer medulla,” for “and creatinine”, “were evaluated for the degree of cystic change. Other sections were stained with picrosirius red for the evaluation of fibrosis. Fibrosis” for “were determined using colorimetric assays (Urea-Sigma 640 creatinine kit). Intact PTH”, “was scored (0-4+) for the relative amount of collagen within the interstitium from picrosirius red staining of collagen fibers. These assessments are the standard methods used to assess response to therapy in animal models of kidney disease (Gattone et al, Nature Medicine 9: 1323-6, 2003).” for “was determined by ELISA; Alpacoa, and Ca and PO4 were done with using colorimeteric analyses (Sigma).”, “values. […]” for “values. The PTH, calcium, and phosphorus were analyzed at baseline (week 20), a mid point, and end point (week 34, 38). These values were compared by a mixed model adjusting for baseline values and time point. The kidney assessments were only measured at end point at the time of sacrifice, and therefore the measures were compared by ANCOVA and within group comparisons.”

Regarding `COc1cccc([C@@H](C)NCCCc2ccccc2Cl)c1.Cl` [Compound A, N-(3-[2-chlorophenyl]-propyl)-R-α-methyl-3-methoxybenzylamine HCl], the “Cyst volume and fibrosis compared to control (FIGS. 3-6)” value in the test on male Cy/+ rat [1] is “reduces cyst volume and fibrosis”. For the same compound, the “Cyst volume and fibrosis compared to control (FIGS. 3-6)” value with male Cy/+ rat [1] (listed as compound A) is “magnitude was significantly greater”. In the test on male Cy/+ rat [2], the BUN turned out to be 79 ± 21 mg/dL, the Calcium was 8.2 ± 1.5 mg/dL, the Phosphorus stood at 5.9 ± 1.4 mg/dL and the PTH turned out to be 131 ± 156 pg/mL. Moreover, the “Change in BUN (week 20 to week 38) = Delta BUN” value in the test with male Cy/+ rat [2] amounted to 31 ± 15 mg/dL. In the test with male Cy/+ rat [3], the “Cyst Vol” value was 3.1 ± 0.55 cc; the “Cyst Vol as a % of BW” value is 0.6 ± 0.1%; the “Total Kidney weight” value came to 9.5 ± 1.4 g; the “Histologic appearance of the cysts (FIG. 7)” value is “noticeable decrease in cyst size and number”. Also, in the test on male Cy/+ rat [3], the “Fibrosis Score” value came to 2.6 ± 0.2.

Take `O=C([O-])[C@H](O)[C@@H](O)[C@H](O)[C@H](O)CO.O=C([O-])[C@H](O)[C@@H](O)[C@H](O)[C@H](O)CO.[Ca+2]` [Ca alone, reference compound]: in the test with male Cy/+ rat [2], the BUN is 69 ± 18 mg/dL, the Calcium came out at 11.2 ± 1.5 mg/dL, the Phosphorus was determined as 4.3 ± 0.8 mg/dL and the PTH turned out to be 39 ± 23 pg/mL. Moreover, the “Change in BUN (week 20 to week 38) = Delta BUN” value in the test with male Cy/+ rat [2] turned out to be 27 ± 11 mg/dL. Moreover, in the test with male Cy/+ rat [3], the “Cyst Vol” value was determined as 4.0 ± 0.9 cc, the “Cyst Vol as a % of BW” value was 0.9 ± 0.2%, the “Total Kidney weight” value was 10.1 ± 1.4 g and the “Histologic appearance of the cysts (FIG. 7)” value is on record as “cysts are a little smaller than control animals but there appears to be a similar number”. In the test with male Cy/+ rat [3], the “Fibrosis Score” value was found to be 2.8 ± 0.2.

The values are drawn from patent US20080027052A1, “METHODS FOR TREATING CYSTIC KIDNEY DISEASE” (priority 2006, published 2008).
